# Data reported in article PMC12820960, “Lactucopicrin: A Sesquiterpene Lactone with Anti-Inflammatory Activity Modulates the Crosstalk between NF-kB and AHR Pathways” (Journal of Medicinal Chemistry, 2025).
# Target: T1, Aryl Hydrocarbon Receptor (AHR) (Homo sapiens, UniProt P35869)
# T1 sequence (P35869 11-848): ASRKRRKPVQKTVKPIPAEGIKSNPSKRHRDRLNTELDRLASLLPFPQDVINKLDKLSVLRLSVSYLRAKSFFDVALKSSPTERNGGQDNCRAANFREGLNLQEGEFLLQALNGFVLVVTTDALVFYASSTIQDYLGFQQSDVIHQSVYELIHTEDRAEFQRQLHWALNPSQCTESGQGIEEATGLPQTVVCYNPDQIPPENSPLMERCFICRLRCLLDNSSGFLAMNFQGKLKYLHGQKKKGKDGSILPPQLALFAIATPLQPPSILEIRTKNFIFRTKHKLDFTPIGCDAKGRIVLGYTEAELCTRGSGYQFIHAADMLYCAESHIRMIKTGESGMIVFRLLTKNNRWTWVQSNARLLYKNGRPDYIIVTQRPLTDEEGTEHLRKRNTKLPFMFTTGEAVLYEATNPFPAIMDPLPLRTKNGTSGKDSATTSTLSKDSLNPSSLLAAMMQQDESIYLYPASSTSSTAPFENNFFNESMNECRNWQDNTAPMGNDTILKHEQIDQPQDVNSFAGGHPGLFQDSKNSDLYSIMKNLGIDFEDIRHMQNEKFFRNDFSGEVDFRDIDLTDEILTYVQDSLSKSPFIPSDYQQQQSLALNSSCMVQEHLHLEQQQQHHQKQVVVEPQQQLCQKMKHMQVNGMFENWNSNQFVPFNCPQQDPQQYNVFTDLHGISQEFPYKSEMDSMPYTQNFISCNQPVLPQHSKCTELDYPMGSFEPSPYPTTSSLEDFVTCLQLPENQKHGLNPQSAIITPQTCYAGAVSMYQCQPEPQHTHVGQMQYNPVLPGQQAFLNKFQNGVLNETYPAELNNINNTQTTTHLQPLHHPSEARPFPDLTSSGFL
# Experiment: AHR luciferase reporter activation ([…]) in THP-1, Caco-2 and EA.hy926 cells
# Type: cell-based
smiles,measurement,value
O=C1/C(=C2\Nc3ccccc3C2=O)Nc2ccccc21 [indigo],"AHR luciferase reporter activation (1 uM) in THP-1, Caco-2 and EA.hy926 cells","AHR activation in THP-1 observed upon exposure to indigo, a known AHR agonist"
